Assay results taken from US20140213538A1, “LYSOPHOSPHATIDIC ACID RECEPTOR ANTAGONISTS” (InterMune, Inc., priority 2013, published 2014).

How the values were obtained:
LPA1 = LPA1 (Homo sapiens, UniProt Q92633); assay: LPA1 Migration Assay (Oris); assay type: cell-based; set-up: host or cells: primary fibroblasts (lung, dermal), HFL-1, 3T3 and CHO cells expressing LPA1R; conditions: read-out: Cell Migration EC50
From the text: LPA1 Migration Assay Migration of primary fibroblasts (including lung, dermal), HFL-1, 3T3 and CHO cells expressing LPA1R were monitored using the Oris™ assay (Platypus Technologies, Madison, Wis.). These cells were dye (Cell Tracker Green™) loaded and serum starved for 12-24 hrs. In response to chemoattractants such as LPA and serum, the cells migrated inward in to the exclusion (detection) zone. After fixing, fluorescent cells in the detection zone were counted using a high content reader. The ability of LPA1 antagonists to inhibit cell migration is quantified by plotting cell number vs. compound concentration and curve fitting the resulting dose-response curve to a 4 parameter logistic function.

LPA/S1P GPCR of interest = biological target: T1, LPA/S1P GPCR of interest (Homo sapiens, UniProt Q92633); assay: Beta-Arrestin based assay (PathHunter); assay type: cell-based
T1 construct: host or cells: CHO
T1 sequence (Q92633 whole entry): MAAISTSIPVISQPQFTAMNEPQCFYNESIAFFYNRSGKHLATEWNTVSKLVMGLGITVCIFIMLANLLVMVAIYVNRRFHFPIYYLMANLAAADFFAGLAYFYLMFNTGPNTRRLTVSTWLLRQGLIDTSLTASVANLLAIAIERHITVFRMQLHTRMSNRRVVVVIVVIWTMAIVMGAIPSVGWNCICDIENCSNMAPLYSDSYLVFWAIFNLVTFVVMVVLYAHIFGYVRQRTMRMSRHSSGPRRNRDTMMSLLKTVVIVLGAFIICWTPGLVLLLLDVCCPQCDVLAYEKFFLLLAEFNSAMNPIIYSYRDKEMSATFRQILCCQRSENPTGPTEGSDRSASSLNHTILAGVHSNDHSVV
Method in brief: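 EA Parental CHO cells (DiscoverX) were transfected with FuGENE (Roche) using CMV promoter-driven DNA constructs encoding the LPA/S1P GPCR of interest fused to a ProLink tag. Beta-arrestin recruitment in agonist mode was assessed 24-48 hrs later with PathHunter kits. Tests ran in quadruplicate in white 384 well plates, and end point luminescence was fit to a 4 parameter logistic function.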

LPA1, sequence (Q92633 whole entry): as above

EC50 (LPA1)	EC50 (LPA/S1P GPCR of interest)	Compound
> 500 nM	> 500 nM	Cc1noc(-c2ccc(C#Cc3ccccc3C(=O)O)cc2)c1NC(=O)O[C@H](C)c1ccccc1 [IT154]
50 to 500 nM	< 50 nM	Cc1nsc(-c2cc(F)c(-c3nc4sc(C5(C(=O)O)CC5)cc4s3)cc2F)c1NC(=O)O[C@H](C)c1ccccc1 [IT201]
> 500 nM	50 to 500 nM	Cc1noc(-c2ccc(-c3ccc(Oc4ncn(C)c4C(=O)O)cc3)cc2)c1NC(=O)O[C@H](C)c1ccccc1 [IT486]
50 to 500 nM	< 50 nM	C[C@@H](OC(=O)Nc1c(-c2ccc(-c3cc(F)c(OC4(C(=O)O)CC4)c(F)c3)cc2)nnn1C)c1ccccc1 [IT312]
50 to 500 nM	< 50 nM	Cc1nnn(-c2ccc(-c3cc(F)c(Oc4cccnc4C(=O)O)c(F)c3)cc2)c1NC(=O)O[C@H](C)c1ccccc1 [IT437]
> 500 nM	50 to 500 nM	C[C@@H](OC(=O)Nc1c(-c2cc3sc(-c4ccc5[nH]cc(CC(=O)O)c5c4)cc3s2)cnn1C)c1ccccc1 [IT188]
< 50 nM	< 50 nM	Cc1noc(-c2ccc(-c3ccc(Oc4ccccc4C(=O)O)c(F)c3)cc2)c1NC(=O)O[C@H](C)c1ccccc1 [IT355]
50 to 500 nM	< 50 nM	C[C@@H](OC(=O)Nc1c(-c2ccc(-c3ccc(Oc4ccc(F)cc4C(=O)O)cc3)cc2)cnn1C)c1ccccc1 [IT461]
> 500 nM	50 to 500 nM	Cc1nsc(-c2ccc(-c3ccc(OC(C)(C)C(=O)O)c(F)c3)cc2)c1NC(=O)O[C@H](C)c1ccccc1 [IT507]
> 500 nM	< 50 nM	CCOC(=O)c1cccnc1Oc1c(F)cc(-c2ccc(-c3nnn(C)c3NC(=O)O[C@H](C)c3ccccc3)cc2)cc1F [IT476]
50 to 500 nM	< 50 nM	Cc1cc(C2(C(=O)O)CC2)ccc1-c1cc2sc(-c3nnn(C)c3NC(=O)O[C@H](C)c3ccccc3)cc2s1 [IT291]
> 500 nM	50 to 500 nM	C[C@@H](OC(=O)Nc1c(-c2ccc(-c3ccc(OC(C)(C)C(=O)O)cc3)cc2)cnn1C)c1ccccc1 [IT510]
> 500 nM	50 to 500 nM	C[C@@H](OC(=O)Nc1c(-c2cc3sc(-c4ccc(CC(=O)O)c(Cl)c4)cc3s2)nnn1C)c1ccccc1 [IT166]
> 500 nM	50 to 500 nM	C[C@@H](OC(=O)Nc1c(-c2cc3sc(-c4ccc(CC(=O)O)cc4)cc3s2)cnn1C)c1ccccc1 [IT132]
50 to 500 nM	< 50 nM	Cc1noc(-c2ccc(-c3ccc(Oc4cnccc4C(=O)O)cc3)cc2)c1NC(=O)O[C@H](C)c1ccccc1 [IT257]
50 to 500 nM	< 50 nM	Cc1noc(-c2ccc(-c3ccc(Oc4cccc(F)c4C(=O)O)cc3)cc2)c1NC(=O)O[C@H](C)c1ccccc1 [IT454]
> 500 nM	> 500 nM	C[C@@H](OC(=O)Nc1c(-c2cc3sc(-c4cc(Cl)c(CC(=O)O)cc4F)cc3s2)cnn1C)c1ccccc1 [IT187]
> 500 nM	50 to 500 nM	C[C@@H](OC(=O)Nc1c(-c2cc3sc(-c4ccc(CC(=O)O)c(Cl)c4)cc3s2)cnn1C)c1ccccc1 [IT165]
50 to 500 nM	< 50 nM	Cc1nsc(-c2ccc(-c3ccc(OC4(C(=O)O)CC4)cc3)cc2)c1NC(=O)O[C@H](C)c1ccccc1 [IT513]
50 to 500 nM	< 50 nM	C[C@@H](OC(=O)Nc1c(-c2cc(F)c(-c3ccc(C4(C(=O)O)CC4)cc3)cc2F)oc2ncccc12)c1ccccc1 [IT096]
> 500 nM	50 to 500 nM	Cc1nsc(-c2ccc(NC(=O)c3csc(C4(C(=O)O)CC4)c3)cc2)c1NC(=O)O[C@H](C)c1ccccc1 [IT193]
> 500 nM	50 to 500 nM	Cc1nsc(-c2cc3sc(-c4ccc(CC(=O)O)cc4)cc3s2)c1NC(=O)O[C@H](C)c1ccccc1 [IT133]
50 to 500 nM	< 50 nM	Cc1noc(-c2ccc(-c3cc(F)c(OC(C)(C)C(=O)O)c(F)c3)cc2)c1NC(=O)O[C@H](C)c1ccccc1 [IT500]
> 500 nM	50 to 500 nM	Cc1nnn(-c2ccc(-c3cc(F)c(OC4(C(=O)O)CC4)c(F)c3)cc2)c1NC(=O)O[C@H](C)c1ccccc1 [IT313]
< 50 nM	< 50 nM	Cc1noc(-c2ccc(-c3cc(F)c(Oc4ccsc4C(=O)O)c(F)c3)cc2)c1NC(=O)O[C@H](C)c1ccccc1 [IT463]
> 500 nM	50 to 500 nM	C[C@@H](OC(=O)Nc1c(-c2cc3sc(-c4ccc(CC(=O)O)cc4F)cc3s2)cnn1C)c1ccccc1 [IT134]
50 to 500 nM	50 to 500 nM	C[C@@H](OC(=O)Nc1c(-c2cc3sc(-c4cc(Cl)c(C5(C(=O)O)CC5)cc4F)cc3s2)cnn1C)c1ccccc1 [IT284]
50 to 500 nM	< 50 nM	Cc1noc(-c2ccc(-c3ccc(Oc4ccsc4C(=O)O)cc3)cc2)c1NC(=O)O[C@H](C)c1ccccc1 [IT428]

EC50 (LPA1)	EC50 (LPA/S1P GPCR of interest)	Compound
50 to 500 nM	< 50 nM	Cc1noc(-c2ccc(-c3ccc(Oc4ccc(F)cc4C(=O)O)cc3)cc2)c1NC(=O)O[C@H](C)c1ccccc1 [IT459]
50 to 500 nM	< 50 nM	C[C@@H](OC(=O)Nc1c(-c2ccc(-c3ccc(OC4(C(=O)O)CC4)cc3)cc2)cnn1C)c1ccccc1 [IT511]
> 500 nM	> 500 nM	Cc1noc(-c2cc3cc4sc(CC(=O)O)cc4cc3s2)c1NC(=O)O[C@H](C)c1ccccc1 [IT499]
> 500 nM	> 500 nM	Cc1noc(-c2ccc(-c3ccc(S(=O)(=O)C4CC4)cc3)cc2)c1NC(=O)O[C@H](C)c1ccccc1 [IT173]
> 500 nM	50 to 500 nM	C[C@@H](OC(=O)Nc1c(-c2cc3sc(-c4ccc(CC(=O)O)s4)cc3s2)nnn1C)c1ccccc1 [IT179]
> 500 nM	> 500 nM	CCOc1cc(CC(=O)O)ccc1-c1cc2sc(-c3cnn(C)c3NC(=O)O[C@H](C)c3ccccc3)cc2s1 [IT190]
> 500 nM	50 to 500 nM	CC(=O)NS(=O)(=O)c1ccc(-c2ccc(-c3onc(C)c3NC(=O)O[C@H](C)c3ccccc3)cc2)cc1 [IT131]
50 to 500 nM	< 50 nM	C[C@@H](OC(=O)Nc1c(-c2cc3sc(-c4ccc(C5(C(=O)O)CC5)c(F)c4F)cc3s2)nnn1C)c1ccccc1 [IT365]
> 500 nM	50 to 500 nM	C[C@@H](OC(=O)Nc1c(-c2cc3sc(-c4cc(F)c(CC(=O)O)c(F)c4)cc3s2)cnn1C)c1ccccc1 [IT157]
50 to 500 nM	< 50 nM	Cc1noc(-c2ccc(-c3ccc(Oc4ncncc4C(=O)O)cc3)cc2)c1NC(=O)O[C@H](C)c1ccccc1 [IT230]
> 500 nM	> 500 nM	CCOc1cc(CC(=O)O)ccc1-c1cc2sc(-c3nnn(C)c3NC(=O)O[C@H](C)c3ccccc3)cc2s1 [IT191]
50 to 500 nM	< 50 nM	C[C@@H](OC(=O)Nc1c(-c2cc3sc(-c4ccc(C5(C(=O)O)CC5)c(Cl)c4)cc3s2)nnn1C)c1ccccc1 [IT266]
50 to 500 nM	< 50 nM	C[C@@H](OC(=O)Nc1c(-c2cc3sc(-c4cc(F)c(C5(C(=O)O)CC5)cc4F)cc3s2)nnn1C)c1ccccc1 [IT348]
> 500 nM	> 500 nM	COc1cc(CC(=O)O)ccc1-c1cc2sc(-c3cnn(C)c3NC(=O)O[C@H](C)c3ccccc3)cc2s1 [IT162]
50 to 500 nM	50 to 500 nM	Cc1noc(-c2ccc(-c3ccc(Oc4nnccc4C(=O)O)cc3)cc2)c1NC(=O)O[C@H](C)c1ccccc1 [IT231]
50 to 500 nM	< 50 nM	Cc1cc(C2(C(=O)O)CC2)ccc1-c1cc2sc(-c3cnn(C)c3NC(=O)O[C@H](C)c3ccccc3)cc2s1 [IT260]
> 500 nM	50 to 500 nM	C[C@@H](OC(=O)Nc1c(-c2ccc(-c3cc(F)c(OC4(C(=O)O)CC4)c(F)c3)cc2)oc2ccccc12)c1ccccc1 [IT491]
< 50 nM	< 50 nM	C[C@@H](OC(=O)Nc1c(-c2ccc(-c3cc(F)c(Oc4ccsc4C(=O)O)c(F)c3)cc2)cnn1C)c1ccccc1 [IT465]
50 to 500 nM	< 50 nM	Cc1nsc(-c2cc3sc(-c4cnc(C5(C(=O)O)CC5)c(F)c4)cc3s2)c1NC(=O)O[C@H](C)c1ccccc1 [IT394]
50 to 500 nM	< 50 nM	Cc1noc(-c2ccc(-c3ccc(Oc4nccnc4C(=O)O)cc3)cc2)c1NC(=O)O[C@H](C)c1ccccc1 [IT232]
> 500 nM	50 to 500 nM	Cc1cc(CC(=O)O)ccc1-c1cc2sc(-c3snc(C)c3NC(=O)O[C@H](C)c3ccccc3)cc2s1 [IT170]
50 to 500 nM	< 50 nM	C[C@@H](OC(=O)Nc1c(-c2cc3sc(-c4ccc(C5(C(=O)O)CC5)cc4Cl)cc3s2)nnn1C)c1ccccc1 [IT390]
> 500 nM	> 500 nM	Cc1nsc(-c2ccc(-c3nnc(CC(=O)O)o3)cc2)c1NC(=O)O[C@H](C)c1ccccc1 [IT142]
> 500 nM	50 to 500 nM	C[C@@H](OC(=O)Nc1c(-c2cc3sc(-c4ccc(CC(=O)O)s4)cc3s2)cnn1C)c1ccccc1 [IT147]
50 to 500 nM	50 to 500 nM	Cc1noc(-c2cc3sc(-c4cc(F)c(OC5(C(=O)O)CC5)c(F)c4)cc3s2)c1NC(=O)O[C@H](C)c1ccccc1 [IT488]
50 to 500 nM	< 50 nM	Cc1noc(-c2ccc(-c3ccc(S(=O)(=O)NC(=O)C4CC4)cc3)cc2)c1NC(=O)O[C@H](C)c1ccccc1 [IT138]
> 500 nM	> 500 nM	Cc1nsc(-c2cc3sc(-c4ccc(CC(=O)O)s4)cc3s2)c1NC(=O)O[C@H](C)c1ccccc1 [IT148]
